Data from patent US10471073B2, “Methods of reducing mammographic breast density and/or breast cancer risk” (Havah Therapeutics Pty Ltd., priority 2016, dated 2019).

What was measured:
person with macromastia = assay: Macromastia: breast volume by water displacement; type: in vivo, human; conditions: tamoxifen and oral contraceptive therapy before the pellet
Description: The treatment consisted of testosterone 100 mg and anastrazole 3 mg compounded into a 4.5 mm pellet. The pellet was inserted into the subcutaneous fat of the lower abdominal wall.
Prior to treatment (Pre-treatment) the right and left breasts were separately placed in a calibrated bucket and the volume of displacement for each breast was measured. This was accomplished by submerging each breast until the breast was fully submerged but the water was not touching the chest wall. After one month of treatment the volume measurements were repeated using the same water displacement methodology. Fluid displacements were measured in mls.

pre-menopausal person = conditions: prior art; cited from earlier work
androgen receptor (AR) = assay: IHC of high MBD breast tissue explants with columnar cell change: androgen receptor; type: cell-based, human; conditions: for AR, percentage of cell staining: 24 hours, E 5 nM, T 10 nM, G 100 nM, A 25 ng/L [sic]; for effect on AR levels: tissue samples of both patients
Description: (§1) The samples are transported on ice for Prostate-specific antigen (PSA) determination. […] PSA is detectable in greater than 90% of the nipple fluid aspirations of normal women. […] This area was removed and transported on ice to the laboratory for explant culture. […] A representative piece of each tissue sample was immediately fixed in 4% formalin in phosphate-buffered saline (PBS) overnight at 4° C., followed by dehydration using an automatic tissue processor (Sakura Tissue-Tek VIP, USA) and paraffin wax embedding. A haematoxylin and eosin (H&E) stained section was used to assess tissue pathology. Additional consecutive sections were subjected to antigen retrieval to assess androgen receptor levels by immunohistochemistry (IHC). The remaining fresh tissue was cut into small (˜3×3×1 mm) pieces, and placed as triplicates on 1 cm^3 gelatin sponges (Spongostan; Johnson & Johnson, Skipton, UK) that were pre-soaked and then half submerged in treatment media containing 10% by volume dextran-coated charcoal stripped fetal calf serum (DCC-FCS) (SAFC biosciences, Kansas, USA) in 24-well tissue culture plates (BD Biosciences, NJ, USA). The tissues samples of both patients were cultured for 24 hours in a vehicle of 0.1% by volume of ethanol and subjected to the treatments set forth in Table 17.
(§2) Following 24 hours culturing in a 5% by volume CO2 enriched atmosphere at 37° C., the treated tissues samples were processed for IHC analyses as indicated below. Established IHC protocols were used to determine hormone receptor androgen receptor status in the 4 tissue samples prior to culture. Following microwave antigen retrieval in […] (pH6.5) tissue sections were incubated at 4° C. overnight with primary antibody for androgen receptor, estrogen receptor and PSA. Negative controls were generated by replacement of the primary antibodies with PBS. Tissues were dehydrated in ethanol and xylene and mounted with DPX (VWR International Ltd, England, UK). Following staining, digital images of stained sections were generated with a NanoZoomer scanner (Hamamatsu, Japan) to enable analyses of % positivity in untreated tissues, using Visual Image Analysis software (Video Pro, South Australia). A pathologist undertook histological evaluation with 25 years experience in breast pathology.

estrogen receptor (ER) = assay: IHC of high MBD breast tissue explants with columnar cell change: estrogen receptor; type: cell-based, human; conditions: 24 hours, E 5 nM, T 10 nM, G 100 nM, A 25 ng/L [sic]
Description: as §1, §2

[1] = system: prostate specific antigen (PSA); assay: IHC of high MBD breast tissue explants with columnar cell change: PSA; type: cell-based, human; conditions: for PSA, percentage of cell staining: 24 hours, E 5 nM, T 10 nM, G 100 nM, A 25 ng/L [sic]; for effect on PSA levels: tissue samples of both patients
Description: as §1, §2

[2] = cited from earlier work

SMILES | breast growth in macromastia (person with macromastia) | mammographic breast density (pre-menopausal person) | AR, percentage of cell staining (androgen receptor (AR); Patient 1 explant, vehicle […]%) [%] | AR, percentage of cell staining (androgen receptor (AR); Patient 2 explant, vehicle 10%) [%] | effect on AR levels (androgen receptor (AR)) | ER, percentage of cell staining (estrogen receptor (ER); Patient 1 explant, vehicle 90%) [%] | ER, percentage of cell staining (estrogen receptor (ER); Patient 2 explant, vehicle 75%) [%] | PSA, percentage of cell staining ([1]; Patient 1 explant, vehicle 20%) [%] | PSA, percentage of cell staining ([1]; Patient 2 explant, vehicle […]%) [%] | effect on PSA levels [1] | fraction broken down in the liver as it is absorbed from the gut ([2]; oral delivery) | fraction broken down in the intestines by aromatase and other metabolic pathways ([2]; oral)
CC/C(=C(\c1ccccc1)c1ccc(OCCN(C)C)cc1)c1ccccc1 [tamoxifen] | failed to cease the breast growth | reduce |  |  |  |  |  |  |  |  |  | 
C[C@]12CC[C@H]3[C@@H](CCC4=CC(=O)CC[C@@]43C)[C@@H]1CC[C@@H]2O [Testosterone, testosterone] |  |  | 35 | 25 | increased | 50 | 45 | 65 | 45 | increased | 80-90% | approximately 85%
C[C@](O)(COc1ccc(C#N)cc1)C(=O)Nc1ccc(C#N)c(C(F)(F)F)c1 [GTx-024, (2S)-3-(4-cyanophenoxy)-N-[4-cyano-3-(trifluoromethyl)phenyl]-2-hydroxy-2-methylpropanamide] |  |  | 45 | 55 | increased | 45 | 25 | 50 | 55 | increased |  | 
C[C@]12CC[C@@H]3c4ccc(O)cc4CC[C@H]3[C@@H]1CC[C@@H]2O [Estradiol, estradiol] |  |  | 5 | <5 |  | >95 | >95 | 5 | <5 |  |  | 
CC(C)(C#N)c1cc(Cn2cncn2)cc(C(C)(C)C#N)c1 [Anastrozole, 2,2′-[5-(1H-1,2,4-triazol-1-ylmethyl)-1,3-phenylene]bis(2-methylpropanenitrile)] |  |  |  |  |  |  |  | 35 | 25 | mild stimulatory effect |  | 
